Measurements as given in paper PMC11054528, “Evaluation of Physicochemical Properties of Ipsapirone Derivatives Based on Chromatographic and Chemometric Approaches” (Molecules, 2024).

Columns and labels:
[1] = calibration mixture for IAM-HPLC, reference CHI value; column head printed CHI C18; cited from earlier work
[2] = target: T1, human serum albumin (HSA) (Homo sapiens, UniProt P02768); details: calibration mixture for HSA-HPLC, reference value; column head printed CHI C18; cited from earlier work
[3] = calibration mixture for C18-HPLC, reference CHI value; cited from earlier work
[4] = target: T1, human serum albumin (HSA); assay: HSA-HPLC, biomimetic chromatography on Chiralpak HSA column; type: in vitro ADME; design: purchased Daicel Chiral Technologies, West Chester, PA, USA; details: for LogKHSA: pH 7.4; for %HSA: pH 7.4, recalculated from logKHSA
Description: Utilizing columns modified by plasma proteins, such as human serum albumin (HSA), allows for estimating binding to plasma protein (PPB). Generally, PPB affects drug pharmacokinetics, including distribution, half-life, and clearance. While lipophilicity is a well-known factor in determining PPB, it should also be considered in early drug discovery. In general, more lipophilic compounds tend to have higher percentages of PP due to nonspecific interactions with proteins. However, hydrophilic compounds can also bind strongly to PP through […] and electrostatic interactions by binding in protein pockets.
For HSA-HPLC experiments, the column was Chiralpak® HSA (100 × 4 mm; 5 µm with safety guard column; Daicel Chiral Technologies, West Chester, PA, USA). The column temperature was set to 30 °C. The same phase A as in the IAM-HPLC case was used, and the mobile phase B was isopropanol (i-PrOH). The linear gradient from 0 to 20% i-PrOH was applied from 0 to 15 min, held at 20% i-PrOH for 12 min, and then returned to pure ammonium acetate solution. The mobile phase flow rate was 0.9 mL/min throughout the experiment. Three minutes of column recalibration was applied between each run. The retention times were collected at wavelengths between 190 and 300 nm, and the injection volume was 10 μL.

[5] = IAM-HPLC, immobilized artificial membrane chromatography (affinity to phospholipids); type: physicochemical; design: scale not given here; details: IAM.PC.DD2 column, pH 7.4
Description: In considering that lipophilicity is a known factor influencing passive diffusion across the BBB, this is an important observation. The affinity to phospholipids can also be determined using one-gradient protocols and the IAM column. CHIIAM can be used as a cut-off point to indicate the potential for promiscuous binding and interference with phospholipids.
The immobilized artificial membrane column (IAM.PC.DD2, 10 × 4.6 mm × 10.0 µm with a guard column (Regis Technologies; Morton Grove, IL, USA) was used for IAM-HPLC experiments. The column temperature was set to 30 °C. Similar to RP-HPLC, mobile phase A was a 50 mM ammonium acetate at pH 7.4, and mobile phase B was acetonitrile. The linear gradient from […] ACN was applied from 0 to 5.25 min and held at 98% ACN for 0.5 min at a constant flow rate of 1.5 mL/min.

[6] = Fast gradient RP-HPLC on C18 column (CHI lipophilicity); type: physicochemical; details: for CHIC18 pH = 2.6 / CHIC18 pH = 7.4 / CHIC18 pH = 10.6: C18 column; for CHI LogP: from chromatographically determined CHI on nonionized forms (pH 10.6), CHI LogP = 0.054 × CHI − 1.467
Description: Considering the significant differences in the calculations obtained, the next step of our investigation considered the determination of lipophilicity using a chromatographic approach. Among the available protocols, the fast gradient approach developed by Valko was chosen because it enables the assessment of lipophilicity from a single chromatographic measurement. In addition, this approach enables the determination of the acid/basic properties of molecules through the addition of experiments under different pH conditions.
Therefore, the CHI under pH10.6 can be considered and converted to chromatographically determined LogP, called CHI LogP. A cluster analysis (CA) was performed to compare chromatographically determined and calculated lipophilicity. A CA can be used for the visualization of similarities and differences between studied objects, in this case, lipophilic parameters. The obtained results clearly indicate that significant differences between theoretical and experimental data occurred, and they formed two separate groups (Figure 1). The differences are also visible on the calculated correlation matrix (Figure 2).
For RP-HPLC experiments, a C18 Hypersil GOLD^TM (50 mm × 4.6 mm; 5.0 µm with a guard column; Thermo Scientific, Waltham, MA, USA) column was applied. The column temperature was set to 40 °C. Three water solutions were used as mobile phase A: acetic acid at pH 2.6, […] at pH 7.4, and 50 mM ammonium acetate at pH 10.5. Mobile phase B was acetonitrile (ACN). The linear gradient from 2 to 98% ACN was applied from 0 to 5.25 min and held at 98% ACN for 1.75. The mobile phase flow rate was 1.5 mL/min throughout the experiment.

T1 sequence (P02768 25-609): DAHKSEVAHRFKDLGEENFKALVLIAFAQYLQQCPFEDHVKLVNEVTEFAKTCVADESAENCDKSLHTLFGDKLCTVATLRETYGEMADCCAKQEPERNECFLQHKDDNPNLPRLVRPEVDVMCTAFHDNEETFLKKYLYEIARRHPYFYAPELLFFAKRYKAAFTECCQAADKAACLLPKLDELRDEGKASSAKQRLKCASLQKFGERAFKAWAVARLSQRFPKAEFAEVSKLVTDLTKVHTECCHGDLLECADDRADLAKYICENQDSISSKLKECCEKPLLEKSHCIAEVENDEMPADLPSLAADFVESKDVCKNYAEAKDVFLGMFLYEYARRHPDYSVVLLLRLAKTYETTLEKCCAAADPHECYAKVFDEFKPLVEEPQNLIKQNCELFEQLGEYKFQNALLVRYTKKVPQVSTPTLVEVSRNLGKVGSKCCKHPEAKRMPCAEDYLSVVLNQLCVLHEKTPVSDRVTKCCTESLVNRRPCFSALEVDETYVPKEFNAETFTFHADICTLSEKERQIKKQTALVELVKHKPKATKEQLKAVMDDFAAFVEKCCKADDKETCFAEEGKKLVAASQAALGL

## CC(=O)Nc1ccccc1 [Acetanilidine]
[1]
  CHI (IAM-HPLC calibration): 11.5

## CC(=O)c1ccccc1 [Acetophenone]
[1]
  CHI (IAM-HPLC calibration): 17.2

## CCCC(=O)c1ccccc1 [Butyrophenone]
[1]
  CHI (IAM-HPLC calibration): 32.0

## CCCCCCC(=O)c1ccccc1 [Heptanophenone]
[1]
  CHI (IAM-HPLC calibration): 45.7

## CCCCCC(=O)c1ccccc1 [Hexanophenone]
[1]
  CHI (IAM-HPLC calibration): 41.8

## CNC(=C[N+](=O)[O-])NCCSCc1csc(CN(C)C)n1 [Nizatidine]
[2]
  HSA binding (HSA-HPLC calibration): 35.0%

## CCCCCCCC(=O)c1ccccc1 [Octanophenone]
[1]
  CHI (IAM-HPLC calibration): 49.4

## CC(=O)Nc1ccc(O)cc1 [Paracetamol]
[1]
  CHI (IAM-HPLC calibration): 2.9

## CCC(=O)c1ccccc1 [Propiophenone]
[3]
  CHI C18: 77.5
[1]
  CHI (IAM-HPLC calibration): 25.9

## CCCCC(=O)c1ccccc1 [Valerophenone]
[1]
  CHI (IAM-HPLC calibration): 37.3

## O=C1c2ccccc2S(=O)(=O)N1CCCCCCN1CCN(c2cccc3sccc23)CC1 [molecule 25]
[4]
  LogKHSA: 1.57
  %HSA: 98.37%
[5]
  CHIIAM: 45.96
[6]
  CHIC18 pH = 2.6: 60.65
  CHIC18 pH = 7.4: 101.68
  CHIC18 pH = 10.6: 108.64
  CHI LogP: 4.40

## COc1ccccc1N1CCN(Cc2ccc(CN3C(=O)c4ccccc4S3(=O)=O)cc2)CC1 [molecule 26]
[4]
  LogKHSA: 1.19
  %HSA: 94.87%
[5]
  CHIIAM: 41.48
[6]
  CHIC18 pH = 2.6: 55.76
  CHIC18 pH = 7.4: 100.20
  CHIC18 pH = 10.6: 100.01
  CHI LogP: 3.93
